Laboratory results taken from ChEMBL document CHEMBL1201862, “PubChem BioAssay data set” (2004).
The source made the active and inactive calls.

Experiments:
Exodeoxyribonuclease V = target: T1, Exodeoxyribonuclease V (Escherichia coli (strain K12), UniProt P04993+P07648+P08394); assay: E. coli RecBCD inhibitors, dose response, counter-screen for AddAB inhibitor project, absorbance, V66 E. coli, mutant T4 phage (AID 492957); assay type: functional, cell-based, Escherichia coli str. K-12 substr. MG1655
T1 sequence (P04993 whole entry): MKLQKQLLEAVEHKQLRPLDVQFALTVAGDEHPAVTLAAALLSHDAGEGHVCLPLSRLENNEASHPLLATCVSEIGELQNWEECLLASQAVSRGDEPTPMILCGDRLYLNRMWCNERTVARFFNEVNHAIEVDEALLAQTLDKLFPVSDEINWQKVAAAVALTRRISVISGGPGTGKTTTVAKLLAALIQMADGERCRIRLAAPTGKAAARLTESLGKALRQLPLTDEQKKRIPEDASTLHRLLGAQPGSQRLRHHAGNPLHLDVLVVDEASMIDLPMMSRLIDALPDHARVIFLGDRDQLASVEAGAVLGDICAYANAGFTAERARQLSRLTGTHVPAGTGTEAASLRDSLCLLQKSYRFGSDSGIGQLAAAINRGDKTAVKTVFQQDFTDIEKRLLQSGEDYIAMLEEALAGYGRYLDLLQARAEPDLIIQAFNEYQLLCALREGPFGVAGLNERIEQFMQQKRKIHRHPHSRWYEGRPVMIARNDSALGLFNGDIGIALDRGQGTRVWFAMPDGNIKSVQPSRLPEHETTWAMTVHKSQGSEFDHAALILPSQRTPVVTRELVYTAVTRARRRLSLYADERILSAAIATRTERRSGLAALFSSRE
T1 sequence (P07648 whole entry): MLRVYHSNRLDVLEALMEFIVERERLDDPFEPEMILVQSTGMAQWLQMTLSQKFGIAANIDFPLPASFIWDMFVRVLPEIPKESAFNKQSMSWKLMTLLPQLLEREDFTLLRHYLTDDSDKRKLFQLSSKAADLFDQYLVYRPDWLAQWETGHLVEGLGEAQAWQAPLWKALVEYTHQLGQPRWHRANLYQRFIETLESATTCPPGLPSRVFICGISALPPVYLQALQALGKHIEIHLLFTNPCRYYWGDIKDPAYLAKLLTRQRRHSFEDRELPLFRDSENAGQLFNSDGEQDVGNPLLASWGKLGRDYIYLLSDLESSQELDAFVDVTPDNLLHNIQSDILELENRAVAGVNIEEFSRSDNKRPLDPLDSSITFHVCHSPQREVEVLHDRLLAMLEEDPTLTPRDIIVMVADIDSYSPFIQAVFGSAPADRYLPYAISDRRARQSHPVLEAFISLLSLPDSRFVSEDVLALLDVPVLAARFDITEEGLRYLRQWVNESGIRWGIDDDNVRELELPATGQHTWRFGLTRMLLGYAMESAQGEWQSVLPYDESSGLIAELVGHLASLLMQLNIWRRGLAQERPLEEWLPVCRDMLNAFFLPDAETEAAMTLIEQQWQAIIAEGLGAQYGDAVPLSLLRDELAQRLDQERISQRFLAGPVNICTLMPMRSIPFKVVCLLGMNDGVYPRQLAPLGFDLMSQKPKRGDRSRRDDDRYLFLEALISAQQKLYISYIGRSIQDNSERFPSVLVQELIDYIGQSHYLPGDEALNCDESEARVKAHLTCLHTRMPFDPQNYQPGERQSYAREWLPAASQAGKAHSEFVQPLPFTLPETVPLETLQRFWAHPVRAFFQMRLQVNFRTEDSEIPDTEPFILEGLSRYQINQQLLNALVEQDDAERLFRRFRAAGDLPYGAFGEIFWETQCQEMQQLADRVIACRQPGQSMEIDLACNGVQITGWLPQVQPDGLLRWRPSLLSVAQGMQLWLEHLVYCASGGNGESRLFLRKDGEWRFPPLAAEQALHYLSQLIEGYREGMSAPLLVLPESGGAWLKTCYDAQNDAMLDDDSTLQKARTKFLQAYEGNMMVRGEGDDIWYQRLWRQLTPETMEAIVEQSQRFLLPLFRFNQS
T1 sequence (P08394 whole entry): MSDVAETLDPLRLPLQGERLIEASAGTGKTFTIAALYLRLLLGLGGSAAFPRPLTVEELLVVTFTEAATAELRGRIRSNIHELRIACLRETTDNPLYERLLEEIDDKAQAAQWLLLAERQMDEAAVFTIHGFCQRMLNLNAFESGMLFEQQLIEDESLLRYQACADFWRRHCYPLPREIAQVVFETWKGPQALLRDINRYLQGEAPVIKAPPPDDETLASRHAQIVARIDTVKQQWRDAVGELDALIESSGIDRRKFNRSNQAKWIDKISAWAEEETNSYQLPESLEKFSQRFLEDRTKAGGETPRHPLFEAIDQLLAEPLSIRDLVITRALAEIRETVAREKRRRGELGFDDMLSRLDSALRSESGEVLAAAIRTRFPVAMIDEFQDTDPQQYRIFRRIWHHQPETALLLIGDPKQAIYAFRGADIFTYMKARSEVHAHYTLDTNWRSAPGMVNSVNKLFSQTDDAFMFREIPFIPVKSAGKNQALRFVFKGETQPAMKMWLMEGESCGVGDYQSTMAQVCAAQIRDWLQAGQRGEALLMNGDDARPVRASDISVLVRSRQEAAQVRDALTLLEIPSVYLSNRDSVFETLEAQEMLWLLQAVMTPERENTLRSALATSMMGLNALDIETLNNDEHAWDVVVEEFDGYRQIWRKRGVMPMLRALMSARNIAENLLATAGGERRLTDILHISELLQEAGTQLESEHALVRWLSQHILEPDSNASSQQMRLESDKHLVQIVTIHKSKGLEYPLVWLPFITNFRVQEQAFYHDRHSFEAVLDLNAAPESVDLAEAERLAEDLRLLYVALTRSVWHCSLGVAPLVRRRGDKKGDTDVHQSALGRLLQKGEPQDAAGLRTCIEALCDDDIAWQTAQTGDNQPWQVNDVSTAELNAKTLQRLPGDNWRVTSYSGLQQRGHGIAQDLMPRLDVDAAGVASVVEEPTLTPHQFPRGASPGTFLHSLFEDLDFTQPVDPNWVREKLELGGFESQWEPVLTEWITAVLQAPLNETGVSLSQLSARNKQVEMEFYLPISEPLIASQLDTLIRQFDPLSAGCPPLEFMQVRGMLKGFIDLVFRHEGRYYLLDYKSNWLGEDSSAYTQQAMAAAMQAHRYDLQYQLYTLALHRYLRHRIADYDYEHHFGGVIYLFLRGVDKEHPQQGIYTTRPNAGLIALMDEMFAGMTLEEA

Caspase-3 = target: T2, Caspase-3 (Homo sapiens, UniProt P42574); assay type: functional;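 also: Dose-response selectivity test against caspase-3 for candidate inhibitors of sentrin-specific proteases (SENPs)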
T2 sequence (P42574 whole entry): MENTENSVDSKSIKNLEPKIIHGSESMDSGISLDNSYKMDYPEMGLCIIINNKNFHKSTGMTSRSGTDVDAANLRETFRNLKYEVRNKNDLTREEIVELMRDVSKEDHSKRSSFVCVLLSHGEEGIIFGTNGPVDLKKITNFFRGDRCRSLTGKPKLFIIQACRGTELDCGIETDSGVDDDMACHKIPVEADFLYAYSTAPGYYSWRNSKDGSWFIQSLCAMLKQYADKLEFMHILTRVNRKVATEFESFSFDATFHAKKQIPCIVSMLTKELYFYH

`CCCCC(=O)NC(c1ccc(N(CC)CC)cc1)c1ccc2cccnc2c1O` (configuration not stated) was tested, and the IC50 (Exodeoxyribonuclease V) was > 119 µM (inactive).
With `CCOc1cccc(/C=N/NC(=S)Nc2ccccc2[N+](=O)[O-])c1O` the IC50 (Caspase-3) was 4.25 µM (active).
